Measured values taken from US20210015764A1, “METHODS OF REDUCING INFLAMMATION OF THE DIGESTIVE SYSTEM WITH INHIBITORS OF HIF-2- ALPHA” (Peloton Therapeutics Inc., priority 2018, published 2021).
Read-outs that look alike come from different tables or passages of the source.

How the values were obtained:
[1] = system: 786-O cells; assay: VEGF ELISA assay; format: cell-based; conditions: Homo sapiens, 786-0, VEGF in culture medium
Method: Each concentration was plated in duplicate. About 20 hours later, medium was removed by suction and each well was supplied with 180 μL of growth medium. About 20 μl freshly-made 10× compound stocks were added to each well. […] The EC50 was calculated by GraphPad Prism using the dose-response-inhibition (four parameter) equation. The cell-seeded plate was then subjected to CellTiter-Glo luminescence cell viability assay (Promega) by adding 50 μL of Celltiter Glo reagent into each well and shaking the plate for 8 minutes at 550 rpm (Thermomixer R, Eppendorf) then the luminescence signal immediately read in a plate reader (3 second delay, 0.5 second/well integration time, Synergy 2 multi Detection Microplate reader).

[2] = system: 786-O-Hif-Luc cells; assay: Luciferase assay (HIF responsive element reporter); conditions: 24 h
Method: A pool of infected cells were then selected against 2 g/mL of puromycin (P8833, Sigma) for 10 days followed by limited dilution to select single clones.
Each concentration was tested in triplicate. After about 24 hours, luciferase activity was determined using ONE-Glo Luciferase Assay Reagent (E6110, Promega) following the manufacturer's recommended procedure. EC50 were calculated using Dotmatics software.

[3] = target: T1, HIF-2α HIS TAG-PASB Domain (Homo sapiens, UniProt Q99814); assay: HIF-2α Scintillation Proximity Assay (SPA); format: binding
T1 construct: 100 nM HIF-2α HIS TAG-PASB Domain
Method: The total assay volume was about 100 μL in the following configuration: 2 μL compound in 100% DMSO, 88 μL buffer with protein and probe and 10 μL of SPA beads. […] The percent inhibition was determined and IC50 values were calculated using the Dotmatics system based on the following equation: % inhibition=[(high control−sample)/(high control−low control)]×100.

[4] = system: DSS induced colitis; assay: DSS-induced model of colitis, two DSS cycles (Example 12); format: in vivo; conditions: female C57BI6 mice, Compound 231 60 mg/kg BID, filgotinib 30 mg/kg QD; for colon length: day 27
Method: 6-8 week old female C57BI6 mice were tagged and weighed, then treated with 2% dextran sulfate sodium (DSS) for 6 days. A 2 week recovery phase of regular water was completed over days 7-19. […] Mice were monitored daily and scored for body weight loss, stool consistency/diarrhea, and blood in the feces/rectum. The disease activity index was calculated according to Table 4. The second DSS cycle and treatment regimen continued for 7 days, and then on day 27 the animals were sacrificed. Colons were harvested and the texture, appearance and length of the colons assessed. Colon tissues were prepared for H&E histology, immune gene expression analysis, and immune phenotyping of immune cell infiltrate by flow cytometry. [table]

[5] = read-out: Mean Luciferase EC50 (nM)
[6] = read-out: Mean Luciferase EC50 (nM), 786-O-Hif-Luc cells, about 24 hours
[7] = probe displacement from HIF-2α PAS-B domain, read-out: Scintillation Proximity Assay IC50

T1 sequence (Q99814 240-350 limits assumed): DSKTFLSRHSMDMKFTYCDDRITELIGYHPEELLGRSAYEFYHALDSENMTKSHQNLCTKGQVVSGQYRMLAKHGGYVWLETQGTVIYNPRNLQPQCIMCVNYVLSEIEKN

Compound O=S(=O)(c1ccc(Oc2cc(F)cc(Cl)c2)c2c1[C@H](O)CC2)C(F)F [Compound 1] has an EC50 [1] of 250 to 1000 nM.

Compound C[C@H]1C[C@@H](O)c2c(S(=O)(=O)C(F)F)ccc(Oc3cc(F)cc(Cl)c3)c21 [Compound 7a] has an EC50 [2, 5] of 250 to 1000 nM.

In the case of O=S(=O)(c1ccc(Oc2cc(F)cc(Cl)c2)c2c1C(O)CC2)C(F)F (stereo not shown) [Compound 17], the EC50 [1] is reported as 50 to 249 nM.

With O=S(=O)(c1ccc(Oc2cc(F)cc(Cl)c2)c(Cl)c1CO)C(F)F [Compound 41] the EC50 [2, 5] was 250 to 1000 nM and the EC50 [1] was 250 to 1000 nM.

With COCc1c(S(=O)(=O)C(F)F)ccc(Oc2cc(F)cc(Cl)c2)c1Cl [Compound 44] the IC50 [3] was > 1000 nM.

Work on N#Cc1cc(F)cc(Oc2ccc(S(=O)(=O)C(F)(F)F)c3c2CC[C@H]3O)c1 [Compound 57] yielded an EC50 [2, 5] of 50 to 249 nM.

Work on N#Cc1ccc(Oc2cc(F)cc(F)c2)c2c1[C@H](O)C(F)(F)C2 [Compound 67] yielded an EC50 [1] of 50 to 249 nM.

N#Cc1cc(F)cc(Oc2ccc(S(=O)(=O)C(F)F)c3c2CCC3O)c1 (stereo not shown) [Compound 78] was tested, and the EC50 [1] was 250 to 1000 nM.

Work on O=S(=O)(c1ccc(Oc2cc(F)cc(Cl)c2)c(C(F)F)c1)C(F)(F)F [Compound 124] yielded an EC50 [2, 5] of 250 to 1000 nM and an EC50 [1] of 250 to 1000 nM.

Work on N#Cc1cc(F)cc(Oc2ccc(S(=O)(=O)C(F)F)c3c2CC[C@H]3O)c1 [Compound 155] yielded an EC50 [2, 5] of 50 to 249 nM and an EC50 [1] of 50 to 249 nM.

N#Cc1cccc(Oc2ccc(S(=O)(=O)C(F)F)c3c2CC[C@H]3O)c1 [Compound 156] gave an EC50 [2, 5] of 250 to 1000 nM.

In the case of CS(=O)(=O)c1ccc(Oc2cc(F)cc(C#N)c2)c2c1[C@H](O)C(F)(F)C2 [Compound 163, (S)-3-((2,2-difluoro-1-hydroxy-7-(methylsulfonyl)-2,3-dihydro-1H-inden-4-yl)oxy)-5-fluorobenzonitrile], the EC50 [2, 5] is reported as < 50 nM.

In the case of CS(=O)(=O)c1ccc(Oc2cc(F)cc(C#N)c2)c2c1[C@H](N)C(F)(F)C2 [Compound 165], the EC50 [2, 5] is reported as 50 to 249 nM.

For N#Cc1cc(Cl)cc(Oc2ccc(S(=O)(=O)CF)c3c2CC(F)(F)[C@H]3O)c1 [Compound 167], the EC50 [2, 5] was < 50 nM.

For CCS(=O)(=O)c1ccc(Oc2cc(F)cc(C#N)c2)c2c1[C@H](O)C(F)(F)C2 [Compound 206], the EC50 [2, 5] was 50 to 249 nM.

With CS(=O)(=O)c1ccc(Oc2cc(F)cc(C#N)c2)c2c1C(O)C(F)(F)C2 (stereo not shown) [Compound 223] the EC50 [2, 5] was 50 to 249 nM.

In the case of CS(=O)(=O)c1ccc(Oc2cc(F)cc(C#N)c2)c2c1[C@@H](O)C(F)(F)C2 [Compound 226], the EC50 [2, 5] is reported as > 1000 nM.

With N#Cc1cc(F)cc(Oc2ccc(S(=O)(=O)C(F)(F)F)c3c2C[C@@H](F)[C@H]3O)c1 [Compound 227] the EC50 [2, 6] was < 50 nM.

With [2H]C([2H])([2H])S(=O)(=O)c1ccc(Oc2cc(F)cc(C#N)c2)c2c1[C@]([2H])(O)C(F)(F)C2 [Compound 229] the EC50 [2, 5] was < 50 nM.

CS(=O)(=O)c1ccc(Oc2cc(F)cc(C#N)c2)c2c1[C@H](O)[C@H](F)C2 [Compound 231] was tested, and the colon length [4] was “greatest improvement in colon length” and the EC50 [2, 5] was < 50 nM.

With CS(=O)(=O)c1ccc(Oc2cc(F)cc(C#N)c2)c2c1C(O)C(F)C2 (stereo not shown) [Compound 232] the EC50 [2, 5] was < 50 nM.

CS(=O)(=O)c1ccc(Oc2cc(Cl)cc(C#N)c2)c2c1[C@H](O)C(F)(F)C2 [Compound 234] was tested, and the EC50 [2, 5] was < 50 nM and the EC50 [1] was 50 to 249 nM.

With N#Cc1cncc(Oc2ccc(S(=O)(=O)C(F)(F)F)c3c2CC(F)(F)[C@H]3O)c1 [Compound 235] the EC50 [2, 5] was < 50 nM.

With O=S(=O)(c1ccc(OC2=CC=CN3CC=NC23)c2c1C(O)C(F)(F)C2)C(F)(F)F (stereo not shown) [Compound 246] the IC50 [3, 7] was > 1000 nM.

With [2H][C@]1(O)c2c(S(C)(=O)=O)ccc(Oc3cc(F)cc(C#N)c3)c2CC1(F)F [Compound 247] the EC50 [2, 5] was < 50 nM.

For CNS(=O)(=O)c1ccc(Oc2cc(F)cc(F)c2)c2c1[C@H](O)C(F)(F)C2 [Compound 251], the EC50 [2, 5] was 50 to 249 nM.

N#Cc1cc(F)cc(Oc2ccc(S(N)(=O)=O)c3c2CC(F)(F)[C@H]3O)c1 [Compound 252] showed an EC50 [2, 5] of 50 to 249 nM.

Compound CNS(=O)(=O)c1ccc(Oc2cc(F)cc(C#N)c2)c2c1[C@H](O)C(F)(F)C2 [Compound 254] has an EC50 [2, 5] of 50 to 249 nM.

For NS(=O)(=O)c1ccc(Oc2cc(F)cc(F)c2)c2c1[C@H](O)C(F)(F)C2 [Compound 256], the EC50 [2, 5] was < 50 nM.

N#Cc1cc(F)cc(Oc2ccc(S(=O)(=O)C(F)(F)F)c3c2CCC3O)c1 (stereo not shown) [Compound 258] was tested, and the EC50 [2, 5] was > 1000 nM.

Compound CS(=O)(=O)c1ccc(Oc2cc(F)cc(C#N)c2)c2c1[C@H](O)[C@@H](F)C2 [Compound 271] has an EC50 [2, 5] of 250 to 1000 nM.

For O=S(=O)(c1ccc(Oc2cc(F)cc(Cl)c2)c2c1[C@H](O)C[C@@H]2CO)C(F)(F)F [Compound 281], the IC50 [3, 7] was 250 to 1000 nM.

CS(=O)(=O)c1ccc(Oc2cc(F)cc(C#N)c2)c2c1[C@H](O)[C@H](F)[C@@H]2F [Compound 289, 3-[(1S,2S,3R)-2,3-difluoro-1-hydroxy-7-methylsulfonyl-indan-4-yl]oxy-5-fluoro-benzonitrile] was tested, and the EC50 [2, 5] was < 50 nM.

N#Cc1cc(F)cc(Oc2ccc(S(=O)(=O)C(F)(F)F)c3c2CC(F)(F)[C@H]3N)c1 [Compound 290] showed an EC50 [2, 5] of 50 to 249 nM.

For N#Cc1cc(F)cc(Oc2ccc(S(N)(=O)=O)c3c2[C@@H](F)C(F)(F)[C@H]3O)c1 [Compound 338], the EC50 [2, 5] was < 50 nM.

For N#Cc1cc(F)cc(Oc2ccc(S(N)(=O)=O)c3c2[C@H](F)C(F)(F)[C@H]3O)c1 [Compound 339], the EC50 [2, 5] was 250 to 1000 nM.

For N#Cc1cc(F)cc(Oc2ccc3c(c2Br)C(N)C(F)(F)S3(=O)=O)c1 (stereo not shown) [Compound 376], the IC50 [3, 7] was < 50 nM and the EC50 [2, 6] was > 1000 nM.

O=S1(=O)c2ccc(OC3CCOCC3)c(C(F)F)c2C(O)C1(F)F (stereo not shown) [Compound 400] was tested, and the IC50 [3, 7] was > 1000 nM and the EC50 [2, 6] was > 1000 nM.

N#Cc1cc(F)cc(-c2cnc(C(F)(F)F)c3c2C[C@@H](F)[C@H]3O)c1 [Compound 471] showed an IC50 [3, 7] of 250 to 1000 nM.

For CCCNc1ccc(S(=O)(=O)C(F)F)c2c1CC(F)(F)[C@H]2O [Compound 532], the IC50 [3, 7] was < 50 nM and the EC50 [2, 6] was 250 to 1000 nM.

Compound O=S(=O)(c1ccc(OC2CC(O)C2)c2c1[C@H](O)C(F)(F)C2)C(F)(F)F (stereo partly shown) [Compound 644] has an EC50 [2, 6] of 250 to 1000 nM.

For O=C1CCC(Oc2ccc(S(=O)(=O)C(F)(F)F)c3c2CC(F)(F)[C@H]3O)CN1 (stereo partly shown) [Compound 719], the IC50 [3, 7] was > 1000 nM.

In the case of CC(C)(C)OC(=O)NC1CC(Oc2ccc(S(=O)(=O)C(F)(F)F)c3c2CC(F)(F)[C@H]3O)C1 (stereo partly shown) [Compound 722], the EC50 [2, 6] is reported as > 1000 nM.

O=S(=O)(c1ccc(OC2CCOCC2)c2c1[C@@H](O)C(F)(F)C2)C(F)F [Compound 782] gave an IC50 [3, 7] of 50 to 249 nM and an EC50 [2, 6] of 50 to 249 nM.

For O=C(Nc1nc2cccc(-c3ccc(CN4CCS(=O)(=O)CC4)cc3)n2n1)C1CC1 [filgotinib], the colon length [4] was “This effect was reversed” and the “disease activity index score” value ([4]; second DSS cycle ([…] DSS, 7 days), vehicle group 6-7) was “slight decrease in the disease activity index, but only in the later stage of the disease progression”.
